Experimental data published in PubChem BioAssay AID2060616 (Molecular Pharmacology Branch, DTP, NCI, 2025).

System: 377384-186-R-J1-PDC complex spheroid viability
Test: Anticancer human tumor 377384-186-R-J1-PDC patient-derived pancreatic carcinoma cell line growth inhibition [CLK]
Details: for IC50: curve of first compound; for viability, T/C: stronger effect = lower value
Procedure, shortened: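 Multi-cell-type spheroids combined patient-derived tumor cells with HUVEC endothelial cells and human mesenchymal stem cells. Paired agents were dosed in half-log steps down from about clinical Cmax, or from 10 microM where Cmax was unknown.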

[1] = second compound 0.0316 µM, first compound 0.0316 µM
[2] = second compound 0.0316 µM, first compound 0.1 µM
[3] = second compound 0.0316 µM, first compound 0.316 µM
[4] = second compound 0.0316 µM, first compound 1 µM
[5] = second compound 0.0316 µM, first compound 3.16 µM
[6] = second compound 0.0316 µM, first compound 10 µM
[7] = second compound 0.1 µM, first compound 0.0316 µM
[8] = second compound 0.1 µM, first compound 0.1 µM
[9] = second compound 0.1 µM, first compound 0.316 µM
[10] = second compound 0.1 µM, first compound 1 µM
[11] = second compound 0.1 µM, first compound 3.16 µM
[12] = second compound 0.1 µM, first compound 10 µM
[13] = second compound 0.316 µM, first compound 0.0316 µM
[14] = second compound 0.316 µM, first compound 0.1 µM
[15] = second compound 0.316 µM, first compound 0.316 µM
[16] = second compound 0.316 µM, first compound 1 µM
[17] = second compound 0.316 µM, first compound 3.16 µM
[18] = second compound 0.316 µM, first compound 10 µM
[19] = second compound 1 µM, first compound 0.0316 µM
[20] = second compound 1 µM, first compound 0.1 µM
[21] = second compound 1 µM, first compound 0.316 µM
[22] = second compound 1 µM, first compound 1 µM
[23] = second compound 1 µM, first compound 3.16 µM
[24] = second compound 1 µM, first compound 10 µM
[25] = second compound 3.16 µM, first compound 0.0316 µM
[26] = second compound 3.16 µM, first compound 0.1 µM
[27] = second compound 3.16 µM, first compound 0.316 µM
[28] = second compound 3.16 µM, first compound 1 µM
[29] = second compound 3.16 µM, first compound 3.16 µM
[30] = second compound 3.16 µM, first compound 10 µM
[31] = second compound 10 µM, first compound 0.0316 µM
[32] = second compound 10 µM, first compound 0.1 µM
[33] = second compound 10 µM, first compound 0.316 µM
[34] = second compound 10 µM, first compound 1 µM
[35] = second compound 10 µM, first compound 3.16 µM
[36] = second compound 10 µM, first compound 10 µM
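Further: spheroids exposed to agents for 7 days before reading.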
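Wherever viability, T/C is given: luminescence signal used as a stand-in for viable cells.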

How did the IC50 (second compound 0.0316 µM) turn out when `CC(=O)O[C@H]1C(=O)[C@@]2(C)[C@H]([C@H](OC(=O)c3ccccc3)[C@]3(O)C[C@H](OC(=O)[C@H](O)[C@@H](NC(=O)c4ccccc4)c4ccccc4)C(C)=C1C3(C)C)[C@]1(OC(C)=O)CO[C@@H]1C[C@@H]2O` + CNC(=O)c1ccc(Nc2nc(OC3CCCC3)c3c(-c4ccc5nc(C)oc5c4)c[nH]c3n2)c(OC)c1 was run?
The IC50 was less than 31.6 nM.

And the IC50 (second compound 0.1 µM)?
Its IC50 is less than 31.6 nM.

What about the IC50 (second compound 0.316 µM) of the same compound?
Its IC50 is less than 31.6 nM.

What about the IC50 (second compound 1 µM) of the same compound?
The IC50 was less than 31.6 nM.

And the IC50 (second compound 3.16 µM)?
The IC50 was less than 31.6 nM.

And the IC50 (second compound 10 µM)?
The IC50 was less than 31.6 nM.

And the viability, T/C [1]?
The viability, T/C was 11.1%.

What about the viability, T/C [2] of the same compound?
The viability, T/C was 9.78%.

What about the viability, T/C [3] of the same compound?
Its viability, T/C is 11.1%.

And the viability, T/C [4]?
Its viability, T/C is 10.2%.

What about the viability, T/C [5] of the same compound?
Its viability, T/C is 12.7%.

What about the viability, T/C [6] of the same compound?
The viability, T/C was 20.1%.

What about the viability, T/C [7] of the same compound?
Its viability, T/C is 14.4%.

And the viability, T/C [8]?
The viability, T/C was 16.9%.

And the viability, T/C [9]?
Its viability, T/C is 20.5%.

And the viability, T/C [10]?
Its viability, T/C is 21.8%.

What about the viability, T/C [11] of the same compound?
The viability, T/C was 28.9%.

What about the viability, T/C [12] of the same compound?
Its viability, T/C is 35.2%.

And the viability, T/C [13]?
The viability, T/C was 20%.

And the viability, T/C [14]?
The viability, T/C was 21.2%.

And the viability, T/C [15]?
The viability, T/C was 29%.

And the viability, T/C [16]?
Its viability, T/C is 36.6%.

And the viability, T/C [17]?
The viability, T/C was 42.3%.

What about the viability, T/C [18] of the same compound?
Its viability, T/C is 47.3%.

And the viability, T/C [19]?
Its viability, T/C is 21.7%.

And the viability, T/C [20]?
Its viability, T/C is 22.3%.

What about the viability, T/C [21] of the same compound?
Its viability, T/C is 29.6%.

And the viability, T/C [22]?
Its viability, T/C is 37.9%.

What about the viability, T/C [23] of the same compound?
Its viability, T/C is 40.5%.

What about the viability, T/C [24] of the same compound?
Its viability, T/C is 49.1%.

And the viability, T/C [25]?
The viability, T/C was 18%.

What about the viability, T/C [26] of the same compound?
Its viability, T/C is 21.7%.

And the viability, T/C [27]?
Its viability, T/C is 27.5%.

And the viability, T/C [28]?
Its viability, T/C is 34.4%.

And the viability, T/C [29]?
The viability, T/C was 38.6%.

What about the viability, T/C [30] of the same compound?
The viability, T/C was 45.5%.

And the viability, T/C [31]?
The viability, T/C was 17.7%.

And the viability, T/C [32]?
Its viability, T/C is 22.3%.

What about the viability, T/C [33] of the same compound?
Its viability, T/C is 29.7%.

And the viability, T/C [34]?
The viability, T/C was 37.2%.

And the viability, T/C [35]?
The viability, T/C was 38.7%.

What about the viability, T/C [36] of the same compound?
Its viability, T/C is 42.8%.

With `COc1ccc([C@@H](O)c2cc(-c3ncnc4cc(N5CCOCC5)ccc34)c(F)cc2Cl)nn1` + CNC(=O)c1ccc(Nc2nc(OC3CCCC3)c3c(-c4ccc5nc(C)oc5c4)c[nH]c3n2)c(OC)c1 as the compound, how does the IC50 (second compound 0.0316 µM) read?
The IC50 was 1640 nM.

What about the IC50 (second compound 0.1 µM) of the same compound?
The IC50 was less than 31.6 nM.

And the IC50 (second compound 0.316 µM)?
The IC50 was less than 31.6 nM.

And the IC50 (second compound 1 µM)?
The IC50 was less than 31.6 nM.

What about the IC50 (second compound 3.16 µM) of the same compound?
Its IC50 is less than 31.6 nM.

What about the IC50 (second compound 10 µM) of the same compound?
Its IC50 is less than 31.6 nM.

What about the viability, T/C [1] of the same compound?
The viability, T/C was 93.6%.

And the viability, T/C [2]?
The viability, T/C was 99.5%.

What about the viability, T/C [3] of the same compound?
Its viability, T/C is 92%.

What about the viability, T/C [4] of the same compound?
Its viability, T/C is 54.9%.

What about the viability, T/C [5] of the same compound?
Its viability, T/C is 49.6%.

And the viability, T/C [6]?
Its viability, T/C is 29.4%.

What about the viability, T/C [7] of the same compound?
Its viability, T/C is 36.8%.

What about the viability, T/C [8] of the same compound?
The viability, T/C was 33.5%.

And the viability, T/C [9]?
Its viability, T/C is 40.5%.

What about the viability, T/C [10] of the same compound?
Its viability, T/C is 35%.

What about the viability, T/C [11] of the same compound?
The viability, T/C was 26.5%.

What about the viability, T/C [12] of the same compound?
Its viability, T/C is 19.5%.

What about the viability, T/C [13] of the same compound?
The viability, T/C was 16.1%.

And the viability, T/C [14]?
Its viability, T/C is 14.4%.

And the viability, T/C [15]?
The viability, T/C was 17.4%.

What about the viability, T/C [16] of the same compound?
Its viability, T/C is 16.6%.

What about the viability, T/C [17] of the same compound?
Its viability, T/C is 16.1%.

And the viability, T/C [18]?
The viability, T/C was 13.6%.

And the viability, T/C [19]?
Its viability, T/C is 15.9%.

And the viability, T/C [20]?
The viability, T/C was 18.2%.

And the viability, T/C [21]?
The viability, T/C was 18.3%.

What about the viability, T/C [22] of the same compound?
Its viability, T/C is 15.9%.

And the viability, T/C [23]?
Its viability, T/C is 15.3%.

And the viability, T/C [24]?
Its viability, T/C is 15.5%.

And the viability, T/C [25]?
Its viability, T/C is 14.7%.

What about the viability, T/C [26] of the same compound?
Its viability, T/C is 17.8%.

And the viability, T/C [27]?
The viability, T/C was 18.1%.

And the viability, T/C [28]?
Its viability, T/C is 16.2%.

What about the viability, T/C [29] of the same compound?
Its viability, T/C is 16.6%.

And the viability, T/C [30]?
Its viability, T/C is 15.5%.

What about the viability, T/C [31] of the same compound?
The viability, T/C was 15.7%.

What about the viability, T/C [32] of the same compound?
The viability, T/C was 13.2%.

And the viability, T/C [33]?
The viability, T/C was 17.6%.

What about the viability, T/C [34] of the same compound?
Its viability, T/C is 15.7%.

And the viability, T/C [35]?
Its viability, T/C is 17.3%.

And the viability, T/C [36]?
The viability, T/C was 15.4%.

Which results are given for `COc1cccc2c1C(=O)c1c(O)c3c(c(O)c1C2=O)CC(O)(C(=O)CO)CC3OC1CC(N)C(O)C(C)O1` (stereo unspecified) + CNC(=O)c1ccc(Nc2nc(OC3CCCC3)c3c(-c4ccc5nc(C)oc5c4)c[nH]c3n2)c(OC)c1?
IC50 (second compound 0.0316 µM): < 31.6 nM; IC50 (second compound 0.1 µM): < 31.6 nM; IC50 (second compound 0.316 µM): < 31.6 nM; IC50 (second compound 1 µM): < 31.6 nM; IC50 (second compound 3.16 µM): < 31.6 nM; IC50 (second compound 10 µM): < 31.6 nM; viability, T/C [1]: 10.2%; viability, T/C [2]: 4.37%; viability, T/C [3]: 1.55%; viability, T/C [4]: 0.38%; viability, T/C [5]: 3.07%; viability, T/C [6]: 5.83%; viability, T/C [7]: 9.1%; viability, T/C [8]: 3.91%; viability, T/C [9]: 1.38%; viability, T/C [10]: 0.45%; viability, T/C [11]: 3.75%; viability, T/C [12]: 7.17%; viability, T/C [13]: 9.14%; viability, T/C [14]: 3.32%; viability, T/C [15]: 1.45%; viability, T/C [16]: 0.82%; viability, T/C [17]: 4.73%; viability, T/C [18]: 9.99%; viability, T/C [19]: 7.32%; viability, T/C [20]: 2.1%; viability, T/C [21]: 0.65%; viability, T/C [22]: 0.52%; viability, T/C [23]: 3.63%; viability, T/C [24]: 11.6%; viability, T/C [25]: 9.23%; viability, T/C [26]: 1.54%; viability, T/C [27]: 0.4%; viability, T/C [28]: 0.63%; viability, T/C [29]: 5.3%; viability, T/C [30]: 7.54%; viability, T/C [31]: 7.12%; viability, T/C [32]: 2.27%; viability, T/C [33]: 0.51%; viability, T/C [34]: 1.07%; viability, T/C [35]: 5.51%; viability, T/C [36]: 9.57%
